Data on 27 molecules can be found in patent US11351268B2, “FGF21 C-terminal peptide optimization” (INDIANA UNIVERSITY RESEARCH AND TECHNOLOGY CORPORATION, priority 2016, dated 2022).

Non-standard residues stand in square brackets, D forms with d. Residues, ends and D or L forms follow the SMILES beside them. No end group written: not given here.

Broadly, the IC50 is the midpoint of a concentration-inhibition curve.

For this experiment, the target named is T1, Klotho β (KLB) (Homo sapiens, UniProt Q86Z14).
T1 construct: expressed in transfected cells; host or cells: HEK 293T (ATCC), pooled Zeocin-selected cells stably expressing hKLB from pcDNA3.1(+)
T1 sequence (Q86Z14 1-1044): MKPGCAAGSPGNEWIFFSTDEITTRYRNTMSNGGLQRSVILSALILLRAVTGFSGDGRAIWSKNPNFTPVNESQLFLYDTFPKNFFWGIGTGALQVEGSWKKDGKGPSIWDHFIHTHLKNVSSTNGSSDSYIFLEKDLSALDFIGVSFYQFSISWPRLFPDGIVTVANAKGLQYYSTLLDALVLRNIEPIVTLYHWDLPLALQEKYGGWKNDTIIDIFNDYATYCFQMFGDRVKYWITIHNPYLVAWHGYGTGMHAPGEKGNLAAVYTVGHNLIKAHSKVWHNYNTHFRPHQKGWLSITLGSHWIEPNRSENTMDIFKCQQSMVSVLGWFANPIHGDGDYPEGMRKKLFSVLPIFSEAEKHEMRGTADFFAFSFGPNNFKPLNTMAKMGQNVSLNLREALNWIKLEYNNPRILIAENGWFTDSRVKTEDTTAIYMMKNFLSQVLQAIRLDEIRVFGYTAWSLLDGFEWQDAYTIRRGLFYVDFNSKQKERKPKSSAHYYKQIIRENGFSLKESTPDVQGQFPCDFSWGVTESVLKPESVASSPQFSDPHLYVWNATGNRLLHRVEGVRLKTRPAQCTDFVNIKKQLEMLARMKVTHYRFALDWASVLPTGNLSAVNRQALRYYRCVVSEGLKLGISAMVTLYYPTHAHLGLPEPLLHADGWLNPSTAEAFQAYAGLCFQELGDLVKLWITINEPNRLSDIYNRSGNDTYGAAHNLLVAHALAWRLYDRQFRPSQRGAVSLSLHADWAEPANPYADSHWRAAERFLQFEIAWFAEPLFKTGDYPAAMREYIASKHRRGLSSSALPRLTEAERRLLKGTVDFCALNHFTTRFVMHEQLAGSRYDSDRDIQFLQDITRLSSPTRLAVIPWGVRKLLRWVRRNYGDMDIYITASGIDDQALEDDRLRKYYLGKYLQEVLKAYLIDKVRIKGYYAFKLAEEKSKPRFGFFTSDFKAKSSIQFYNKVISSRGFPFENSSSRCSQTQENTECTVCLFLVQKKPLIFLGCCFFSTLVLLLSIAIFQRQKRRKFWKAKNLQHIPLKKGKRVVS
The experiment can be described thus: cell-based. The format is cell-based. The following applies: for % Activity vs C25: Table 3, D-amino acid scan, C25 = 100; for Emax: Table 1, native sequence = 100% response, read-out: % max activity; for antagonism of FGF21 activity (in words): 10 nM FGF21 stimulation, 293 HEK hKLB cells. The protocol: Cells were cultured in 10% Fetal Bovine Serum containing DMEM High glucose GLUTAMAX® at 37 C, 95% humidity, 5% CO2. For generating the cell line with stable expression, human KLB gene was synthesized by Genscript and subcloned into pcDNA3.1(+) with ZEOCIN® resistance vector (INVITROGEN®) by NheI and NotI restriction enzyme sites. HEK 293T cells were obtained from ATCC and were transiently transfected at 80% confluency using Lipofectamine 3000 (Invitrogen). Selection for KLB-expressing cells was initiated 48 hours post-transfection in the growth media containing 100 μg/ml of ZEOCIN® (Gibco) and continued for 4 weeks with fresh media added every third day. Human KLB expression in pooled cells was confirmed by Western blot and a functional FGF21 MAPK phosphorylation assay.
293 HEK cells expressing hKLB were plated to 90% confluency in 96 well plates coated with poly-D-Lysine. Cells were serum starved for three hours in 0.1% BSA containing media prior to stimulation with protein and/or an antagonist peptide for ten minutes at 37° C. The cell lysate was used for the detection of phospho-Erk1/2 levels by AlphaSureFire kit using the prescribed protocol. The degree of biochemical activation was recorded and analyzed using Origin software by logistic curve fitting. Tests at each concentration were done in triplicates, and the standard deviation is as shown in the graphs. The calculation of maximal activities was done keeping the FGF21 157-181 or FGF19 169-194 peptide activity as standard. The difference between the Erk1/2 phosphorylation signal for the highest (10 μM) and the lowest (0 μM) tested dose for native peptide was considered as 100% and accordingly all the other values were assigned.

Where [1] appears, read: Table 5, FGF19/FGF21 chimeric peptides.
Setting [2] is: FIG. 8A, substitutions at terminal position of FGF19 169-194 peptide.
Where [3] appears, read: FIG. 8B, FGF21 and FGF19 C-terminal peptides.
[4] abbreviates: Table 6, derivatives of SEQ ID NO: 180.

As to `CSCC[C@H](NC(=O)[C@H](CO)NC(=O)[C@H](CC(C)C)NC(=O)[C@@H]1CCCN1C(=O)[C@H](CC(=O)O)NC(=O)[C@H](CO)NC(=O)[C@H](CO)NC(=O)CNC(=O)[C@@H](NC(=O)[C@H](CC(=O)O)NC(=O)[C@@H]1CCCN1C(=O)[C@@H]1CCCN1)C(C)C)C(=O)N[C@H](C(=O)NCC(=O)N1CCC[C@H]1C(=O)N[C@@H](CO)C(=O)N[C@@H](CCC(N)=O)C(=O)NCC(=O)N[C@H](CCCNC(=N)N)C(=O)N[C@@H](CO)C(=O)N1CCC[C@H]1C(=O)N[C@@H](CO)C(=O)N[C@@H](Cc1ccc(O)cc1)C(=O)N[C@@H](C)C(=O)N[C@@H](CO)C(N)=O)C(C)C` [d19, PPDVG SSDPL SMVGP SQGrS PSYAS] (H-PPDVGSSDPLSMVGPSQG[dR]SPSYAS-NH2; N-terminus and C-terminus assumed), the “% Activity vs C25” value is listed as 270.70 ± 136.83%. The “fold increase of antagonistic potency over the native peptide” value (relative to native C-terminal peptide) amounted to 2 fold. Take `CSCC[C@H](NC(=O)[C@H](CO)NC(=O)[C@H](CC(C)C)NC(=O)[C@@H]1CCCN1C(=O)[C@H](CC(=O)O)NC(=O)[C@H](CO)NC(=O)[C@H](CO)NC(=O)CNC(=O)[C@@H](NC(=O)[C@H](CC(=O)O)NC(=O)[C@@H]1CCCN1C(=O)[C@@H]1CCCN1)C(C)C)C(=O)N[C@H](C(=O)NCC(=O)N1CCC[C@H]1C(=O)N[C@@H](CO)C(=O)N[C@@H](CCC(N)=O)C(=O)NCC(=O)N[C@@H](CCCNC(=N)N)C(=O)N[C@@H](CO)C(=O)N1CCC[C@@H]1C(=O)N[C@@H](CO)C(=O)N[C@@H](Cc1ccc(O)cc1)C(=O)N[C@@H](C)C(=O)N[C@@H](CO)C(N)=O)C(C)C` [d21, PPDVG SSDPL SMVGP SQGRS pSYAS] (H-PPDVGSSDPLSMVGPSQGRS[dP]SYAS-NH2; N-terminus and C-terminus assumed): the “% Activity vs C25” value amounted to 3.80 ± 0.87%. In turn, `CSCC[C@H](NC(=O)[C@H](CO)NC(=O)[C@H](CC(C)C)NC(=O)[C@@H]1CCCN1C(=O)[C@H](CC(=O)O)NC(=O)[C@H](CO)NC(=O)[C@H](CO)NC(=O)CNC(=O)[C@@H](NC(=O)[C@H](CC(=O)O)NC(=O)[C@@H]1CCCN1C(=O)[C@@H]1CCCN1)C(C)C)C(=O)N[C@H](C(=O)NCC(=O)N1CCC[C@H]1C(=O)N[C@@H](CO)C(=O)N[C@@H](CCC(N)=O)C(=O)NCC(=O)N[C@@H](CCCNC(=N)N)C(=O)N[C@@H](CO)C(=O)N1CCC[C@H]1C(=O)N[C@@H](CO)C(=O)N[C@@H](Cc1ccc(O)cc1)C(=O)N[C@@H](C)C(=O)N[C@H](CO)C(N)=O)C(C)C` [d25, PPDVG SSDPL SMVGP SQGRS PSYAs] (H-PPDVGSSDPLSMVGPSQGRSPSYA[dS]-NH2; N-terminus and C-terminus assumed) gave an IC50 (Table 3, D-amino acid scan of FGF21 C-terminal 25mer) of 264 ± 120 nM. Regarding “APDVGSSDPLSMVGPSQGRSPSYAS-NH2 (C-terminus assumed) [Peptide A1, APDVGSSDPLSMVGPSQGRSPSYAS]”, the Emax came to 100%.

Take “FGF19 (amino acids 165-194): C-terminal peptide of FGF19, amino acids 165-194 (FLPMLPMVPEEPEDLRGHLESDMFSSPLET) [reference compound]”: the “antagonism of FGF21 activity (in words)” value was “exhibit antagonism to FGF21 activity”. In the case of “FGF21 159-181: 23-amino acid C-terminal fragment of FGF21 (DVGSSDPLSMVGPSQGRSPSYAS; UniProt Q9NSA1 187-209, looked up, fragment) [reference compound]”, the “antagonism of FGF21 activity (in words)” value is given as “weak antagonism”.

Take “FGF21 160-181: C-terminal fragment of FGF21 described as 24-amino acid (VGSSDPLSMVGPSQGRSPSYAS; UniProt Q9NSA1 188-209, looked up, fragment) [reference compound]”: the “antagonism of FGF21 activity (in words)” value was “dramatically improved its antagonistic potential”.

As to “FGF21 162-181: C-terminal fragment of FGF21, residues 162-181 (SSDPLSMVGPSQGRSPSYAS) [reference compound]”, the “antagonism of FGF21 activity (in words)” value is listed as “non-functional”. Same read-out and setting: to “FGF21 (amino acids 153-181): C-terminal peptide of FGF21, amino acids 153-181 (LAPQPPDVGSSDPLSMVGPSQGRSPSYAS) [reference compound]” belongs “exhibit antagonism to FGF21 activity”.

“PADVGSSDPLSMVGPSQGRSPSYAS-NH2 (C-terminus assumed) [Peptide A2, PADVGSSDPLSMVGPSQGRSPSYAS]”: the Emax is 98.5%. Under setting [1], “PLETDSMDPFGLVGPSQGRSPSFEA-NH2 (C-terminus assumed) [Peptide 0430]” came in with an IC50 of 15.9 ± 1.1 nM. As for “PLETDSMDPFGLVTGLEAVRSPSFEA-NH2 (C-terminus assumed) [FGF19 A25]”, the IC50 is, setting by setting: under setting [2], 10.5 nM; under setting [3], 0.5 nM; under setting [1], 19.1 ± 1.5 nM. For “PLETDSMDPFGLVTGLEAVRSPSFEE-NH2 (C-terminus assumed) [Peptide K194E]”, it took 87.9 nM to reach half-maximal inhibition under setting [2] (IC50).

“PLETDSMDPFGLVTGLEAVRSPSFEK-NH2 (C-terminus assumed) [FGF19 WT, reference compound]”: the IC50 was 50 nM under setting [3] and 270 ± 90 nM (Table 2(A), FGF19 169-194 alanine mutants, ≥95% maximal activity). Turning to “PLETDSMDPFGLVTGLEAVRSPSFEL-NH2 (C-terminus assumed) [Peptide K194L]”, the IC50 under setting [2] is 17.3 nM. Still for that read-out and setting: in the case of “PLETDSMDPFGLVTGLEAVRSPSFES-NH2 (C-terminus assumed) [Peptide K194S]” it was 22.3 nM.

For “PLETDSSDPLSMVGPSQGRSPSFEA-NH2 (C-terminus assumed) [Peptide 0432]”, it took 120 ± 6.3 nM to reach half-maximal inhibition under setting [1] (IC50). On the same count and under the same terms, to “PLETDSSDPLSMVTGLEAVRSPSYAA-NH2 (C-terminus assumed) [Peptide 0434]” belongs 264 ± 78.8 nM. In the case of “PPAVGSSDPLSMVGPSQGRSPSYAS-NH2 (C-terminus assumed) [Peptide A3, PPAVGSSDPLSMVGPSQGRSPSYAS]”, the Emax stood at 87.8%. Same read-out and setting: to “PPDAGSSDPLSMVGPSQGRSPSYAS-NH2 (C-terminus assumed) [Peptide A4, PPDAGSSDPLSMVGPSQGRSPSYAS]” belongs 63.6%. For “PPDVASSDPLSMVGPSQGRSPSYAS-NH2 (C-terminus assumed) [Peptide A5, PPDVASSDPLSMVGPSQGRSPSYAS]”, the “% max activity” value is 102.5%. With “PPDVFSMDPFGLVGPSQGRSPSFEA-NH2 (C-terminus assumed) [Peptide 0480]”, 2.6 ± 0.5 nM corresponded to half-maximal inhibition under setting [4] (IC50). In the case of “PPDVGASDPLSMVGPSQGRSPSYAS-NH2 (C-terminus assumed) [Peptide A6, PPDVGASDPLSMVGPSQGRSPSYAS]”, the Emax amounted to 89.2%. The same measure, in the same setting: in the case of “PPDVGSADPLSMVGPSQGRSPSYAS-NH2 (C-terminus assumed) [Peptide A7, PPDVGSADPLSMVGPSQGRSPSYAS]” it was 94.5%.

As to “PPDVGSMDPFGLVGPSQGRSPSFEA-NH2 (C-terminus assumed) [Peptide 0431]”, the IC50 reads like this: under setting [1], 4.1 ± 0.1 nM; under setting [4], 7.1 ± 3 nM. With “PPDVGSMDPFGLVGRSQGRSPSFEA-NH2 (C-terminus assumed) [Peptide 0470]”, half-maximal inhibition under setting [4] (IC50) was put at 4.9 ± 1.1 nM. Consider “PPDVGSMDPFGLVTGLEAVRSPSYAA-NH2 (C-terminus assumed) [Peptide 0433]”, for which the IC50 under setting [1] was 10.7 ± 0.7 nM.
